In patent publication US6869589B1, “Cryptate compounds and methods for diagnosis and therapy” (Australian Nuclear Science & Technology Organization, priority 1999, dated 2005):

Assay: Biodistribution of ^64Cu complexes in balb/c mice
Experimental: The biodistribution of the ^64Cu complexes of compounds (1), (3) and (4) (0.10 ml intravenous injection) were evaluated in balb/c mice (5 animals per time point) at 3, 5, 10, 15, 20 and 30 minute time intervals. Biodistribution studies were performed in duplicate.

C1CNCC2CNCCNCC(CN1)CNCCNC2.[64Cu+2] [^64Cu-labelled compound (4)]
% injected dose per gram (BLADDER, 3 MIN): 13.15 % INJECTED DOSE PER GRAM
% injected dose per gram (BLADDER, 5 MIN): 28.05 % INJECTED DOSE PER GRAM
% injected dose per gram (BLADDER, 10 MIN): 69.91 % INJECTED DOSE PER GRAM
% injected dose per gram (BLADDER, 15 MIN): 8.17 % INJECTED DOSE PER GRAM
% injected dose per gram (BLADDER, 20 MIN): 16.38 % INJECTED DOSE PER GRAM
% injected dose per gram (BLADDER, 30 MIN): 25.38 % INJECTED DOSE PER GRAM
% injected dose per gram (BLOOD, 3 MIN): 8.25 % INJECTED DOSE PER GRAM
% injected dose per gram (BLOOD, 5 MIN): 7.08 % INJECTED DOSE PER GRAM
% injected dose per gram (BLOOD, 10 MIN): 4.41 % INJECTED DOSE PER GRAM
% injected dose per gram (BLOOD, 15 MIN): 2.71 % INJECTED DOSE PER GRAM
% injected dose per gram (BLOOD, 20 MIN): 1.40 % INJECTED DOSE PER GRAM
% injected dose per gram (BLOOD, 30 MIN): 1.07 % INJECTED DOSE PER GRAM
% injected dose per gram (BONE, 3 MIN): 1.60 % INJECTED DOSE PER GRAM
% injected dose per gram (BONE, 5 MIN): 1.56 % INJECTED DOSE PER GRAM
% injected dose per gram (BONE, 10 MIN): 1.28 % INJECTED DOSE PER GRAM
% injected dose per gram (BONE, 15 MIN): 1.60 % INJECTED DOSE PER GRAM
% injected dose per gram (BONE, 20 MIN): 0.89 % INJECTED DOSE PER GRAM
% injected dose per gram (BONE, 30 MIN): 0.65 % INJECTED DOSE PER GRAM
% injected dose per gram (GIT, 3 MIN): 2.62 % INJECTED DOSE PER GRAM
% injected dose per gram (GIT, 5 MIN): 2.16 % INJECTED DOSE PER GRAM
% injected dose per gram (GIT, 10 MIN): 1.49 % INJECTED DOSE PER GRAM
% injected dose per gram (GIT, 15 MIN): 1.07 % INJECTED DOSE PER GRAM
% injected dose per gram (GIT, 20 MIN): 0.89 % INJECTED DOSE PER GRAM
% injected dose per gram (GIT, 30 MIN): 0.80 % INJECTED DOSE PER GRAM
% injected dose per gram (HEART, 3 MIN): 3.25 % INJECTED DOSE PER GRAM
% injected dose per gram (HEART, 5 MIN): 2.66 % INJECTED DOSE PER GRAM
% injected dose per gram (HEART, 10 MIN): 1.60 % INJECTED DOSE PER GRAM
% injected dose per gram (HEART, 15 MIN): 1.08 % INJECTED DOSE PER GRAM
% injected dose per gram (HEART, 20 MIN): 0.51 % INJECTED DOSE PER GRAM
% injected dose per gram (HEART, 30 MIN): 0.47 % INJECTED DOSE PER GRAM
% injected dose per gram (KIDNEY, 3 MIN): 20.08 % INJECTED DOSE PER GRAM
% injected dose per gram (KIDNEY, 5 MIN): 18.62 % INJECTED DOSE PER GRAM
% injected dose per gram (KIDNEY, 10 MIN): 14.79 % INJECTED DOSE PER GRAM
% injected dose per gram (KIDNEY, 15 MIN): 7.52 % INJECTED DOSE PER GRAM
% injected dose per gram (KIDNEY, 20 MIN): 25.99 % INJECTED DOSE PER GRAM
% injected dose per gram (KIDNEY, 30 MIN): 30.26 % INJECTED DOSE PER GRAM
% injected dose per gram (LIVER, 3 MIN): 1.81 % INJECTED DOSE PER GRAM
% injected dose per gram (LIVER, 5 MIN): 1.59 % INJECTED DOSE PER GRAM
% injected dose per gram (LIVER, 10 MIN): 1.16 % INJECTED DOSE PER GRAM
% injected dose per gram (LIVER, 15 MIN): 0.64 % INJECTED DOSE PER GRAM
% injected dose per gram (LIVER, 20 MIN): 5.01 % INJECTED DOSE PER GRAM
% injected dose per gram (LIVER, 30 MIN): 5.76 % INJECTED DOSE PER GRAM
% injected dose per gram (LUNGS, 3 MIN): 5.85 % INJECTED DOSE PER GRAM
% injected dose per gram (LUNGS, 5 MIN): 5.28 % INJECTED DOSE PER GRAM
% injected dose per gram (LUNGS, 10 MIN): 2.84 % INJECTED DOSE PER GRAM
% injected dose per gram (LUNGS, 15 MIN): 2.09 % INJECTED DOSE PER GRAM
% injected dose per gram (LUNGS, 20 MIN): 1.13 % INJECTED DOSE PER GRAM
% injected dose per gram (LUNGS, 30 MIN): 0.92 % INJECTED DOSE PER GRAM
% injected dose per gram (MUSCLE, 3 MIN): 1.76 % INJECTED DOSE PER GRAM
% injected dose per gram (MUSCLE, 5 MIN): 2.10 % INJECTED DOSE PER GRAM
% injected dose per gram (MUSCLE, 10 MIN): 1.24 % INJECTED DOSE PER GRAM
% injected dose per gram (MUSCLE, 15 MIN): 1.73 % INJECTED DOSE PER GRAM
% injected dose per gram (MUSCLE, 20 MIN): 0.36 % INJECTED DOSE PER GRAM
% injected dose per gram (MUSCLE, 30 MIN): 1.27 % INJECTED DOSE PER GRAM
% injected dose per gram (SKIN, 3 MIN): 5.98 % INJECTED DOSE PER GRAM
% injected dose per gram (SKIN, 5 MIN): 6.46 % INJECTED DOSE PER GRAM
% injected dose per gram (SKIN, 10 MIN): 4.21 % INJECTED DOSE PER GRAM
% injected dose per gram (SKIN, 15 MIN): 2.76 % INJECTED DOSE PER GRAM
% injected dose per gram (SKIN, 20 MIN): 1.73 % INJECTED DOSE PER GRAM
% injected dose per gram (SKIN, 30 MIN): 1.42 % INJECTED DOSE PER GRAM
% injected dose per gram (SPLEEN, 3 MIN): 2.26 % INJECTED DOSE PER GRAM
% injected dose per gram (SPLEEN, 5 MIN): 2.17 % INJECTED DOSE PER GRAM
% injected dose per gram (SPLEEN, 10 MIN): 1.28 % INJECTED DOSE PER GRAM
% injected dose per gram (SPLEEN, 15 MIN): 0.67 % INJECTED DOSE PER GRAM
% injected dose per gram (SPLEEN, 20 MIN): 0.52 % INJECTED DOSE PER GRAM
% injected dose per gram (SPLEEN, 30 MIN): 0.35 % INJECTED DOSE PER GRAM
% injected dose per gram (STOMACH, 3 MIN): 3.53 % INJECTED DOSE PER GRAM
% injected dose per gram (STOMACH, 5 MIN): 3.04 % INJECTED DOSE PER GRAM
% injected dose per gram (STOMACH, 10 MIN): 1.84 % INJECTED DOSE PER GRAM
% injected dose per gram (STOMACH, 15 MIN): 0.89 % INJECTED DOSE PER GRAM
% injected dose per gram (STOMACH, 20 MIN): 0.70 % INJECTED DOSE PER GRAM
% injected dose per gram (STOMACH, 30 MIN): 0.65 % INJECTED DOSE PER GRAM
